Laboratory results as given in US20220324835A1 (Nurix Therapeutics, Inc., priority 2018, published 2022).
Where two headings read alike, the source gives them in different places.

Experiments:
T-cell [1] = assay: CD25 cell surface staining on T-cells stimulated with anti-CD3 antibody alone (Biological Example 2); format: cell-based; conditions: primary human total T-cells, baseline = anti-CD3/anti-CD28 stimulated cells without inhibitor, read-out: CD25 staining, Anti-CD3 stimulation, fold change over baseline; for fold induction at 1 µM: 1 μM compound; for fold induction at 8 µM: 8 μM compound
T-cell [2] = assay: IL-2 secretion from T-cells stimulated with anti-CD3 antibody alone (Biological Example 2); format: cell-based; conditions: primary human total T-cells, read-out: IL-2 secretion, Anti-CD3 stimulation, fold change over baseline; for fold induction at 1 µM: 1 μM compound; for fold induction at 8 µM: 8 μM compound
T-cell [3] = assay: IL-2 secretion from T-cells co-stimulated with anti-CD3 and anti-CD28 antibody (Biological Example 2); format: cell-based, human; conditions: Homo sapiens, T-cell, primary human total T-cells, baseline = anti-CD3/anti-CD28 stimulated cells without inhibitor, read-out: IL-2 secretion, Anti-CD3/Anti-CD28 stimulation, fold change over baseline; for fold induction at 0.3 µM: 0.3 μM compound; for fold induction at 1 µM: 1 μM compound; for fold induction at 4 µM: 4 μM compound
Summary of the method: (§1)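 T-cells were stimulated with anti-CD3 antibody alone or with anti-CD28 antibody, in the presence or absence of Cbl-b inhibitor. IL-2 secretion or CD25 surface staining was measured, and values expressed as fold over the uninhibited baseline […].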

T-cell [4] = assay: CD25 cell surface staining on T-cells co-stimulated with anti-CD3 and anti-CD28 antibody (Biological Example 2); format: cell-based, human; conditions: Homo sapiens, T-cell, primary human total T-cells, baseline = anti-CD3/anti-CD28 stimulated cells without inhibitor, read-out: CD25 staining, Anti-CD3/Anti-CD28 stimulation, fold change over baseline; for fold induction at 0.3 µM: 0.3 μM compound; for fold induction at 1 µM: 1 μM compound; for fold induction at 4 µM: 4 μM compound
Summary of the method: as §1

Cbl-b [5] = target: T1, Cbl-b (Homo sapiens, UniProt Q13191); assay: Cbl-b activity assay (Cbl-b inhibition assay), TR-FRET of Cbl-b interaction with UbcH5B-Ub; format: biochemical; conditions: assay buffer with 100 mM NaCl, 60 nM Src kinase; read-out: Cbl-b activity IC50
T1 sequence (Q13191 36-427): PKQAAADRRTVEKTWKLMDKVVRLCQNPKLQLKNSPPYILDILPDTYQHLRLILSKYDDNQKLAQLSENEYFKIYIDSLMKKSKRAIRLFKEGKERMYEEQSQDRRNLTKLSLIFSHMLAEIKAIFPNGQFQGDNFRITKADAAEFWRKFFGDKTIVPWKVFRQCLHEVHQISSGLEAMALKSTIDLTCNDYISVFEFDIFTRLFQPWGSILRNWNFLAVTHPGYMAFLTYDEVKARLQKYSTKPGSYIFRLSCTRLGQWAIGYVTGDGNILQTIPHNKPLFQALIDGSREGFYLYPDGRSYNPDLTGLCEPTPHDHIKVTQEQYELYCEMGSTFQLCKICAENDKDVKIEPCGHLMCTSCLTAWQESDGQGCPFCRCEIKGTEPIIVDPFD
Summary of the method: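 UbcH5B (C85K) conjugated to N-terminally Bodipy-Fluorescein-labeled ubiquitin served as the fluorescent partner. After compound preincubation, Src kinase (60 nM) with 1 mM ATP and 5 mM MgCl2 (final) was added for 1.5 h, followed by a further 1 h incubation. Some values were obtained with 50 mM NaCl and 30 nM Src.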

Cbl-b [6] = target: T1, Cbl-b; assay: Cbl-b inhibition assay (Cbl-b activity assay, FRET, Biological Example 1; 100 mM NaCl, 60 nM Src kinase); format: biochemical; conditions: upper bound stated in text lists; read-out: IC50 values in the Cbl-b inhibition assay of Biological Example 1
Summary of the method: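 Inhibition is read as loss of FRET signal. The signal arises when Src-phosphorylated, N-terminal biotinylated Avi-Cbl-b (captured by streptavidin-terbium) binds UbcH5B carrying covalently linked Bodipy-Fluorescein-tagged ubiquitin.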

primary human NK cells = assay: NK cell activation assessed by cytokine secretion (coculture with K562 NucRed target cells); format: cell-based
Procedure: Peripheral blood mononuclear cells (PBMC) were obtained either: 1) by using Ficoll-Paque™ (GE Healthcare) for separation of peripheral blood hematopoietic cells from buffy coats of healthy human donors; or 2) directly from LeukoPak donations. […] The cells were cultured overnight with IL-2 (60 ng/mL) at 37° C. 5% CO2. Cbl-b inhibitors were added 1 hour prior to stimulation and incubated at 37° C. 5% CO2 at a specific concentration (e.g., 10 μM, 1 μM, or 0.1 μM) with a final DMSO concentration of <0.1%. NK cells were co-cultured with target cells that were engineered to have a red nucleus (K562 NucRed) measurable by flow cytometry. […] The cells were mixed at the indicated ratios (e.g., 5:1, 1:1, or 1:5) of NK (effector cells) to K562 NucRed (target cells) for 6 hours. Cell free supernatants were collected and analyzed for cytokine secretion (e.g. TNFα, IFNγ, or MIP1β) by ELISA or Luminex multiplex kits following the manufacturer's protocol. IFNγ secretion was assessed using an R&D Systems ELISA kit (Catalog #DY285), TNFα secretion was assessed using an R&D Systems ELISA kit (Catalog #DY210), and MIP1β secretion was assessed using an R&D Systems ELISA kit (Catalog #DY271).
Readouts were reported as fold change over baseline. Baseline for this study was the measurement obtained from primary human NK effector cells cocultured with K562 NucRed target cells in the absence of a Cbl-b inhibitor. For NK cells cocultured with K562 NucRed cells, changes greater than 2.0-fold over baseline for cytokine secretion were considered a positive response (Table 10a and 10b).

[7] = K562, 1:1 E/T, read-out: IFNγ secretion
[8] = K562, 1:1 E/T, read-out: MIP1β secretion
[9] = K562, 1:1 E/T, read-out: TNFα secretion
[10] = K562, 5:1 E/T, read-out: IFNγ secretion
[11] = K562, 5:1 E/T, read-out: MIP1β secretion
[12] = K562, 5:1 E/T, read-out: TNFα secretion

Cc1cc(C(=O)Nc2cccc(-c3c(-c4nncn4C)cnn3C)c2)nc(C2CC2)n1 [Compound 522, 2-cyclopropyl-6-methyl-N-(3-(l-methyl-4-(4-methyl-4H-1,2,4-triazol-3-yl)-1H-pyrazol-5-yl)phenyl)pyrimidine-4-carboxamide]
fold induction at 1 µM (T-cell [1]): 0.601 to 0.8 | fold induction at 1 µM (T-cell [2]): 0.101 to 0.15 | fold induction at 0.3 µM (T-cell [3]): 1.01 to 2.5 | fold induction at 1 µM (T-cell [3]): 1.01 to 2.5 | fold induction at 0.3 µM (T-cell [4]): 1.01 to 1.3 | fold induction at 1 µM (T-cell [4]): 1.01 to 1.3 | IC50 (Cbl-b [5]): 100 to 300 nM | IC50 (Cbl-b [6]): ≤ 300 nM

Cn1cnnc1[C@@H](F)[C@](C)(F)c1cccc(N2Cc3c(cc(C4CC4)cc3C(F)(F)F)C2=O)c1 (stereo in doubt) [Compound 482, 6-cyclopropyl-2-[3-[(1R,2R)-1,2-difluoro-1-(4-methyl-4H-1,2,4-triazol-3-yl)propan-2-yl]phenyl]-4-(trifluoromethyl)-2,3-dihydro-1H-isoindol-1-one]
fold induction at 1 µM (T-cell [1]): 0.601 to 0.8 | fold induction at 8 µM (T-cell [1]): 0.801 to 1 | fold induction at 1 µM (T-cell [2]): 0.051 to 0.1 | fold induction at 8 µM (T-cell [2]): 0.051 to 0.1 | fold induction at 0.3 µM (T-cell [3]): < 1 | fold induction at 1 µM (T-cell [3]): 1.01 to 2.5 | fold induction at 4 µM (T-cell [3]): 1.01 to 2.5 | fold induction at 0.3 µM (T-cell [4]): 1.01 to 1.3 | fold induction at 1 µM (T-cell [4]): 1.01 to 1.3 | fold induction at 4 µM (T-cell [4]): 1.01 to 1.3 | IC50 (Cbl-b [5]): 301 to 1000 nM

C[C@@H](c1cccc(N2Cc3c(cccc3C(F)(F)F)C2=O)c1)[C@H](F)c1nncn1C (racemic) [Compound 473, 2-(3-((1S,2S and 1R,2R)-1-fluoro-1-(4-methyl-4H-1,2,4-triazol-3-yl)propan-2-yl)phenyl)-4-(trifluoromethyl)isoindolin-1-one]
fold induction at 1 µM (T-cell [1]): 0.601 to 0.8 | fold induction at 8 µM (T-cell [1]): > 1 | fold induction at 1 µM (T-cell [2]): 0.051 to 0.1 | fold induction at 8 µM (T-cell [2]): 0.151 to 0.2 | fold induction at 0.3 µM (T-cell [3]): 1.01 to 2.5 | fold induction at 1 µM (T-cell [3]): 1.01 to 2.5 | fold induction at 4 µM (T-cell [3]): 2.51 to 5 | fold induction at 0.3 µM (T-cell [4]): 1.01 to 1.3 | fold induction at 1 µM (T-cell [4]): 1.01 to 1.3 | fold induction at 4 µM (T-cell [4]): 1.01 to 1.3 | IC50 (Cbl-b [5]): 301 to 1000 nM

C[C@@H](Sc1nncn1C)c1cccc(NC(=O)c2ccc3ccccc3n2)c1 [Compound 9b, (R)-N-(3-(1-((4-methyl-4H-1,2,4-triazol-3-yl)thio)ethyl)phenyl)quinoline-2-carboxamide]
fold induction at 1 µM (primary human NK cells; [7]): < 1 | fold induction at 1 µM (primary human NK cells; [8]): 1.01 to 2 | fold induction at 1 µM (primary human NK cells; [9]): < 1 | fold induction at 10 µM (primary human NK cells; [7]): < 1 | fold induction at 10 µM (primary human NK cells; [8]): < 1 | fold induction at 10 µM (primary human NK cells; [9]): < 1 | fold induction at 1 µM (primary human NK cells; [10]): < 1 | fold induction at 1 µM (primary human NK cells; [11]): < 1 | fold induction at 1 µM (primary human NK cells; [12]): < 1 | fold induction at 10 µM (primary human NK cells; [10]): < 1 | fold induction at 10 µM (primary human NK cells; [11]): < 1 | fold induction at 10 µM (primary human NK cells; [12]): < 1

Cn1cnnc1C(F)[C@](C)(F)c1cccc(N2Cc3c(cccc3C(F)(F)F)C2=O)c1 (stereo in doubt) [Compound 478a, 2-(3-((1S,2R)-1,2-difluoro-1-(4-methyl-4H-1,2,4-triazol-3-yl)propan-2-yl)phenyl)-4-(trifluoromethyl)isoindolin-1-one]
fold induction at 1 µM (T-cell [1]): < 0.6 | fold induction at 8 µM (T-cell [1]): 0.601 to 0.8 | fold induction at 1 µM (T-cell [2]): < 0.05 | fold induction at 8 µM (T-cell [2]): 0.051 to 0.1 | fold induction at 0.3 µM (T-cell [3]): < 1 | fold induction at 1 µM (T-cell [3]): < 1 | fold induction at 4 µM (T-cell [3]): < 1 | fold induction at 0.3 µM (T-cell [4]): < 1 | fold induction at 1 µM (T-cell [4]): < 1 | fold induction at 4 µM (T-cell [4]): 1.01 to 1.3 | IC50 (Cbl-b [5]): 301 to 1000 nM

C[C@@H](c1cccc(N2Cc3c(cccc3C(F)(F)F)C2=O)c1)C(F)c1nncn1C (stereo in doubt) [Compound 474, 2-(3-((1S, 2S)-1-fluoro-1-(4-methyl-4H-1,2,4-triazol-3-yl)propan-2-yl)phenyl)-4-(trifluoromethyl)isoindolin-1-one]
fold induction at 1 µM (T-cell [1]): 0.601 to 0.8 | fold induction at 8 µM (T-cell [1]): > 1 | fold induction at 1 µM (T-cell [2]): 0.051 to 0.1 | fold induction at 8 µM (T-cell [2]): > 0.201 | fold induction at 0.3 µM (T-cell [3]): 1.01 to 2.5 | fold induction at 1 µM (T-cell [3]): 1.01 to 2.5 | fold induction at 4 µM (T-cell [3]): 2.51 to 5 | fold induction at 0.3 µM (T-cell [4]): 1.01 to 1.3 | fold induction at 1 µM (T-cell [4]): 1.01 to 1.3 | fold induction at 4 µM (T-cell [4]): 1.01 to 1.3

CC(Cc1nncn1C)c1cc(C2CCC2)cc(N2Cc3c(cccc3C(F)(F)F)C2=O)c1 (stereo not drawn) [Compound 476, 2-(3-cyclobutyl-5-(1-(4-methyl-4H-1,2,4-triazol-3-yl)propan-2-yl)phenyl)-4-(trifluoromethyl)isoindolin-1-one]
fold induction at 1 µM (T-cell [1]): 0.601 to 0.8 | fold induction at 8 µM (T-cell [1]): 0.801 to 1 | fold induction at 1 µM (T-cell [2]): 0.051 to 0.1 | fold induction at 8 µM (T-cell [2]): 0.051 to 0.1 | fold induction at 0.3 µM (T-cell [3]): 1.01 to 2.5 | fold induction at 1 µM (T-cell [3]): 1.01 to 2.5 | fold induction at 4 µM (T-cell [3]): 1.01 to 2.5 | fold induction at 0.3 µM (T-cell [4]): 1.01 to 1.3 | fold induction at 1 µM (T-cell [4]): 1.01 to 1.3 | fold induction at 4 µM (T-cell [4]): 1.01 to 1.3 | IC50 (Cbl-b [5]): 301 to 1000 nM

Cn1cnnc1C(F)(F)[C@@](C)(F)c1cccc(N2Cc3c(cc(CN4CC[C@H](F)C4)cc3C(F)(F)F)C2=O)c1 [Compound 449, 6-(((S)-3-fluoropyrrolidin-1-yl)methyl)-2-(3-((S)-1,1,2-trifluoro-1-(4-methyl-4H-1,2,4-triazol-3-yl)propan-2-yl)phenyl)-4-(trifluoromethyl)isoindolin-1-one]
fold induction at 1 µM (T-cell [1]): 0.601 to 0.8 | fold induction at 8 µM (T-cell [1]): 0.801 to 1 | fold induction at 1 µM (T-cell [2]): 0.051 to 0.1 | fold induction at 8 µM (T-cell [2]): 0.051 to 0.1 | fold induction at 0.3 µM (T-cell [3]): < 1 | fold induction at 1 µM (T-cell [3]): < 1 | fold induction at 4 µM (T-cell [3]): 1.01 to 2.5 | fold induction at 0.3 µM (T-cell [4]): < 1 | fold induction at 1 µM (T-cell [4]): < 1 | fold induction at 4 µM (T-cell [4]): 1.01 to 1.3 | IC50 (Cbl-b [5]): 301 to 1000 nM

Cn1cnnc1C(F)(F)[C@](C)(F)c1cccc(N2Cc3c(cc(C(=O)N4CC(C(F)F)C4)cc3C(F)(F)F)C2=O)c1 [Compound 439, (R)-6-(3-(difluoromethyl)azetidine-1-carbonyl)-2-(3-(1,1,2-trifluoro-1-(4-methyl-4H-1,2,4-triazol-3-yl)propan-2-yl)phenyl)-4-(trifluoromethyl)isoindolin-1-one]
fold induction at 1 µM (T-cell [1]): 0.601 to 0.8 | fold induction at 8 µM (T-cell [1]): 0.801 to 1 | fold induction at 1 µM (T-cell [2]): 0.051 to 0.1 | fold induction at 8 µM (T-cell [2]): 0.051 to 0.1 | fold induction at 0.3 µM (T-cell [3]): 1.01 to 2.5 | fold induction at 1 µM (T-cell [3]): 1.01 to 2.5 | fold induction at 4 µM (T-cell [3]): 1.01 to 2.5 | fold induction at 0.3 µM (T-cell [4]): 1.01 to 1.3 | fold induction at 1 µM (T-cell [4]): 1.01 to 1.3 | fold induction at 4 µM (T-cell [4]): 1.01 to 1.3 | IC50 (Cbl-b [5]): 301 to 1000 nM
